Patent publication US20050107311A1, “Buffalo milk gangliosides” (priority 2001, published 2005)

Key:
[1] = target: B-subunit of cholera toxin (CTB) (Vibrio cholerae serotype O1, UniProt P01556)
nar-3, a rotavirus toxin = test: Binding to rotavirus toxin nar-3; conditions: GD3 from Folch LP vs UP
rotavirus particles = test: Binding to rotavirus particles

B-subunit of cholera toxin (CTB), sequence (P01556 22-124 limits assumed): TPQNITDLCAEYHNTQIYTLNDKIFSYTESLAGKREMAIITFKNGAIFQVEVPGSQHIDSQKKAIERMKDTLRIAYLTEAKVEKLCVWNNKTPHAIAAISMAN

Row | Substance | binding of cholera toxin subunit B (CTB) [1] | binding to nar-3 (nar-3, a rotavirus toxin) | other results
1 | GD1a | not capable of binding the toxin | – | –
2 | GD3 [GD3 isolated from the aqueous UP] | – | did not bind to this toxin | –
3 | GD3 [GD3 species isolated from the organic LP] | – | bound to nar-3 | –
4 | GM1 [GM1 isolated from buffalo milk serum] | binds to cholera toxin subunit B | – | –
5 | GM1 [bovine-brain GM1 species] | bind CTB | – | –
6 | GM3 [GM3 species] | – | – | binding of rotavirus particles (rotavirus particles): bind rotavirus particles
